# Data from PubChem BioAssay (NCI).
# “And” between values parts separate entries of the source, which are not always exact repeats. Equal values may be shown once.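 All cell lines were grown in 96-well plates and treated with compound for 48 hours. GI50 = concentration required for 50% inhibition of growth. TGI: concentration producing complete growth inhibition.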 The source made the active and inactive calls. Rule as the data show it: active = GI50 below about 0.43 µM; inactive = the rest.
# Assays:
# Test in all cases: inhibition of tumour cell growth, NCI panel, 48 h
# [1] = test system: 786-0 renal
# [2] = test system: A498 renal
# [3] = test system: A549 NSCLC
# [4] = test system: ACHN renal
# [5] = test system: CAKI-1 renal
# [6] = test system: CCRF-CEM leukemia
# [7] = test system: COLO 205 colon
# [8] = test system: DLD-1 colon
# [9] = test system: DMS 114 small cell lung
# [10] = test system: DMS 273 small cell lung
# [11] = test system: EKVX NSCLC
# [12] = test system: HCC-2998 colon
# [13] = test system: HCT-116 colon
# [14] = test system: HCT-15 colon
# [15] = test system: HL-60(TB) leukemia
# [16] = test system: HOP-18 NSCLC
# [17] = test system: HOP-62 NSCLC
# [18] = test system: HOP-92 NSCLC
# [19] = test system: HT29 colon
# [20] = test system: IGROV1 ovarian
# [21] = test system: K-562 leukemia
# [22] = test system: KM12 colon
# [23] = test system: KM20L2 colon
# [24] = test system: LOX IMVI melanoma
# [25] = test system: LXFL 529 NSCLC
# [26] = test system: M14 melanoma
# [27] = test system: M19-MEL melanoma
# [28] = test system: MALME-3M melanoma
# [29] = test system: MOLT-4 leukemia
# [30] = test system: NCI-H226 lung
# [31] = test system: NCI-H23 lung
# [32] = test system: NCI-H460 lung
# [33] = test system: NCI-H522 lung
# [34] = test system: OVCAR-3 ovarian
# [35] = test system: OVCAR-4 ovarian
# [36] = test system: OVCAR-5 ovarian
# [37] = test system: OVCAR-8 ovarian
# [38] = test system: RPMI-8226 leukemia
# [39] = test system: RXF 393 renal
# [40] = test system: SF-268 CNS
# [41] = test system: SF-295 CNS
# [42] = test system: SF-539 CNS
# [43] = test system: SK-MEL-2 melanoma
# [44] = test system: SK-MEL-28 melanoma
# [45] = test system: SK-MEL-5 melanoma
# [46] = test system: SK-OV-3 ovarian
# [47] = test system: SN12C renal
# [48] = test system: SNB-19 CNS
# [49] = test system: SNB-75 CNS
# [50] = test system: SNB-78 CNS
# [51] = test system: SR leukemia
# [52] = test system: TK-10 renal
# [53] = test system: U251 CNS
# [54] = test system: UACC-257 melanoma
# [55] = test system: UACC-62 melanoma
# [56] = test system: UO-31 renal
# [57] = test system: XF 498 CNS
# [58] = test system: SW-620 colon
smiles,measurement,setting,value
CCOC(OC1=C(C#N)CCC1)C(CC)[Se]c1ccccc1 (stereo unspecified),TGI,[1],28.2 µM
same,TGI,[2],> 100 µM
same,TGI,[3],> 100 µM
same,TGI,[4],81.9 µM
same,TGI,[5],> 100 µM
same,TGI,[6],> 100 µM
same,TGI,[7],53.9 µM
same,TGI,[8],41.2 µM
same,TGI,[9],10.4 µM
same,TGI,[10],24.2 µM
same,TGI,[11],89 µM
same,TGI,[12],83.8 µM
same,TGI,[13],57.6 µM
same,TGI,[14],> 100 µM
same,TGI,[15],38.4 µM
same,TGI,[16],69.5 µM
same,TGI,[17],> 100 µM
same,TGI,[18],54 µM
same,TGI,[19],80.5 µM
same,TGI,[20],71 µM
same,TGI,[21],> 100 µM
same,TGI,[22],> 100 µM
same,TGI,[23],64.7 µM
same,TGI,[24],17.7 µM
same,TGI,[25],48.5 µM
same,TGI,[26],32.3 µM
same,TGI,[27],30.3 µM
same,TGI,[28],66.7 µM
same,TGI,[29],48.8 µM
same,TGI,[30],53.4 µM
same,TGI,[31],25.1 µM
same,TGI,[32],> 100 µM
same,TGI,[33],26.8 µM
same,TGI,[34],58.5 µM
same,TGI,[35],33.1 µM
same,TGI,[36],54.8 µM
same,TGI,[37],65.2 µM
same,TGI,[38],49.8 µM
same,TGI,[39],38.7 µM
same,TGI,[40],38.7 µM
same,TGI,[41],52.7 µM
same,TGI,[42],37.6 µM
same,TGI,[43],80.8 µM
same,TGI,[44],90.4 µM
same,TGI,[45],31.6 µM
same,TGI,[46],> 100 µM
same,TGI,[47],32.3 µM
same,TGI,[48],> 100 µM
same,TGI,[49],64.2 µM
same,TGI,[50],> 100 µM
same,TGI,[51],31.1 µM
same,TGI,[52],> 100 µM
same,TGI,[53],23.9 µM
same,TGI,[54],> 100 µM
same,TGI,[55],61.9 µM
same,TGI,[56],73.6 µM
same,TGI,[57],49.7 µM
CCOC(=O)c1sc2c(C(=O)OCC)n3ccccc3c2c1N,GI50,[4],89.4 µM
same,GI50,[9],47.5 µM
same,GI50,[11],70 µM
same,GI50,[13],35.9 µM
same,GI50,[17],22.5 µM
same,TGI,[17],57.3 µM and 70.7 µM
same,GI50,[18],23.8 µM
same,TGI,[18],55.2 µM
same,outcome,[29],inactive
same,GI50,[31],74.2 µM
same,GI50,[33],24.3 µM
same,TGI,[33],63 µM and 68 µM
same,GI50,[37],52.1 µM
same,outcome,[38],inactive
same,TGI,[39],50 µM
same,GI50,[40],36.6 µM
same,GI50,[42],22.3 µM
same,TGI,[42],75.4 µM
same,GI50,[47],73.5 µM
same,GI50,[48],23.9 µM
same,TGI,[48],90.9 µM and 65.5 µM
same,TGI,[49],99.1 µM
same,GI50,[50],27.3 µM
same,outcome,[51],inactive
same,GI50,[56],49.2 µM
same,TGI,[56],67.1 µM
same,GI50,[57],33.9 µM
same,TGI,[57],48 µM
Cc1c2ncccc2c(C)c2c1[nH]c1ccccc12,TGI,[1],23.2 µM
same,TGI,[2],25.2 µM
same,TGI,[3],21.1 µM
same,TGI,[4],26.5 µM
same,TGI,[5],22 µM
same,TGI,[6],35.3 µM
same,TGI,[7],26.9 µM
same,TGI,[8],23.2 µM
same,TGI,[10],19 µM
same,TGI,[11],30.7 µM
same,TGI,[12],25.7 µM
same,TGI,[13],17.3 µM
same,TGI,[14],54.3 µM
same,TGI,[16],27.3 µM
same,TGI,[17],24.1 µM
same,TGI,[18],25.3 µM
same,TGI,[19],25.7 µM
same,TGI,[20],29.4 µM
same,TGI,[21],41.7 µM
same,TGI,[22],29 µM
same,TGI,[23],22.6 µM
same,TGI,[24],20.8 µM
same,TGI,[25],24.8 µM
same,TGI,[26],44.9 µM
same,TGI,[27],26.1 µM
same,TGI,[28],30.6 µM
same,TGI,[29],6.5 µM
same,TGI,[30],35.9 µM
same,TGI,[31],26 µM
same,TGI,[32],28.7 µM
same,TGI,[33],26.7 µM
same,TGI,[34],28.3 µM
same,TGI,[35],43.4 µM
same,TGI,[36],27.1 µM
same,TGI,[37],27.8 µM
same,TGI,[38],26.2 µM
same,TGI,[39],25.9 µM
same,TGI,[40],34.8 µM
same,TGI,[41],21.9 µM
same,TGI,[42],26 µM
same,TGI,[43],41.4 µM
same,TGI,[44],28.9 µM
same,TGI,[46],31.3 µM
same,TGI,[47],26 µM
same,TGI,[48],26.7 µM
same,TGI,[49],22.6 µM
same,TGI,[50],36 µM
same,TGI,[58],28 µM
same,TGI,[52],31.7 µM
same,TGI,[53],24.7 µM
same,TGI,[54],32 µM
same,TGI,[55],29.2 µM
same,TGI,[57],25.3 µM
COc1cc2ccc3c4cc(OC)c(OCc5ccccc5)cc4cnc3c2cc1OC,TGI,[1],> 100 µM
same,TGI,[2],> 100 µM
same,TGI,[3],> 100 µM
same,TGI,[4],> 100 µM
same,TGI,[5],> 100 µM
same,TGI,[6],> 100 µM
same,TGI,[7],> 100 µM
same,TGI,[8],> 100 µM
same,TGI,[9],> 100 µM
same,TGI,[11],> 100 µM
same,TGI,[12],> 100 µM
same,TGI,[17],> 100 µM
same,TGI,[19],> 100 µM
same,TGI,[20],> 100 µM
same,TGI,[21],> 100 µM
same,TGI,[22],> 100 µM
same,TGI,[23],> 100 µM
same,TGI,[25],> 100 µM
same,TGI,[26],> 100 µM
same,TGI,[27],> 100 µM
same,TGI,[28],> 100 µM
same,TGI,[29],> 100 µM
same,TGI,[31],> 100 µM
same,TGI,[32],> 100 µM
same,TGI,[33],> 100 µM
same,TGI,[34],> 100 µM
same,TGI,[35],> 100 µM
same,TGI,[36],> 100 µM
same,TGI,[37],> 100 µM
same,TGI,[38],> 100 µM
same,TGI,[40],> 100 µM
same,TGI,[41],> 100 µM
same,TGI,[43],> 100 µM
same,TGI,[44],> 100 µM
same,TGI,[45],> 100 µM
same,TGI,[46],> 100 µM
same,TGI,[47],> 100 µM
same,TGI,[49],> 100 µM
same,TGI,[50],> 100 µM
same,TGI,[58],> 100 µM
same,TGI,[52],> 100 µM
same,TGI,[53],> 100 µM
same,TGI,[54],> 100 µM
same,TGI,[55],> 100 µM
same,TGI,[56],> 100 µM
same,TGI,[57],> 100 µM
Cc1ccc(-n2c(C)nc3c2C(=O)c2ccccc2C3=O)cc1,TGI,[1],> 100 µM
same,TGI,[3],> 100 µM
same,TGI,[4],> 100 µM
same,TGI,[6],> 100 µM
same,TGI,[7],41.8 µM
same,TGI,[8],> 100 µM
same,TGI,[10],> 100 µM
same,TGI,[11],> 100 µM
same,TGI,[12],> 100 µM
same,TGI,[13],21.4 µM
same,TGI,[14],> 100 µM
same,TGI,[15],> 100 µM
same,TGI,[17],> 100 µM
same,TGI,[18],> 100 µM
same,TGI,[19],> 100 µM
same,TGI,[20],> 100 µM
same,TGI,[21],> 100 µM
same,TGI,[22],> 100 µM
same,TGI,[23],> 100 µM
same,TGI,[24],97.2 µM
same,TGI,[25],> 100 µM
same,TGI,[26],> 100 µM
same,TGI,[27],25.7 µM
same,TGI,[28],51.5 µM
same,TGI,[29],> 100 µM
same,TGI,[30],> 100 µM
same,TGI,[31],> 100 µM
same,TGI,[32],19.5 µM
same,TGI,[33],> 100 µM
same,TGI,[34],73.2 µM
same,TGI,[35],> 100 µM
same,TGI,[37],> 100 µM
same,TGI,[39],> 100 µM
same,TGI,[40],> 100 µM
same,TGI,[41],> 100 µM
same,TGI,[42],86.1 µM
same,TGI,[43],> 100 µM
same,TGI,[44],> 100 µM
same,TGI,[45],> 100 µM
same,TGI,[46],> 100 µM
same,TGI,[47],> 100 µM
same,TGI,[48],> 100 µM
same,TGI,[49],> 100 µM
same,TGI,[50],> 100 µM
same,TGI,[51],> 100 µM
same,TGI,[58],> 100 µM
same,TGI,[52],> 100 µM
same,TGI,[53],> 100 µM
same,TGI,[54],57 µM
same,TGI,[55],56.6 µM
same,TGI,[56],> 100 µM
same,TGI,[57],> 100 µM
